Laboratory results from US5877165A, “Boronated porhyrins and methods for their use” (priority 1997, dated 1999).

Experiment: Overall ranking of boronated porphyrins for BNCT guided by biodistribution and toxicity tests in mice (Table 11)
Experimental: The higher the numerical value, the better the performance of that porphyrin for that property. […] Although VCDP was able to deliver therapeutic amounts of boron to tumor, such side effects such as thrombocytopenia, which was induced within 3 hours after injections, weight loss, and the altered hepatic enzymes were serious enough to rank VCDP considerably behind the TCP's and the TCP-H's (Miura et al., 1992). In addition, the 80-hour drug administration period and the 90-hour blood clearance period are of great inconvenience. Moreover, this 4-day difference between the VCDP and the TCP (or TCP-H) dose and clearance schedules would translate into a 4-day greater delay between initiation of drug administration and neutron irradiation which would allow greater tumor growth to occur.
[…]
biodistribution and toxicity tests in mice. An asterisk indicates

Substance: Nickel Tetracarboranylphenylporphyrin [NiTCP]
- Drug tolerance/deliverable boron (ranking): 4
- Lipophilicity (ranking): 2
- Tumor uptake (normalized) (ranking): 3
- Tumor:Blood (ranking): 3
- toxicity, in words (general) (in vivo, at (potentially) therapeutic doses): substantially less toxic
